Patent US10342796B2, “Acrylanilide derivative, preparation method, and applications thereof in pharmacy” (Ancureall Pharmaceutical (Shanghai) Co., Ltd., priority 2015, dated 2019)
Like-named read-outs stand apart in the source and are kept apart here.

System: SW48 (EGFR G719S positive)
Assay: Growth inhibition GI50 in vitro (CCK8/MTT, 72 h)
Format: cell-based
Details: Homo sapiens
Description: PC-9ER is an acquired Erlotinib resistance cell line of PC-9 cells developed by the investor. […] The four cell lines above were cultured with 1×RPMI1640 complete medium (supplement with 10% FBS). Human colon cancer cell line SW48 (EGFR G719S positive, ATCC). was cultured with L15 complete medium (10% FB S).
The suspension cells were collected by centrifugation. The supernatant was discard and the cell pellet was resuspended and counted. Different cell concentrations (5˜10×10^4 cells/mL) were prepared according to the growth cycle of each cell line and then seeded on a 96-well plate (Corning), 100 μL/well. The cells were incubated over night at 37° C., 5% CO2. The compounds were added to the cells on the second day with 2 wells in parallel. The final concentration of organic solvent shall not exceed 1%. The cells were continually incubated for 72 h, and then subjected to MTT assay.
The present compounds and the reference compounds were dissolved with DMSO (Sigma), respectively. […] The storage concentration of compounds was 10 mM and kept at −20° C. They were diluted by 2 times or 10 times with serial dilution before using.
Dojindo CCK8 reagent kit was used as MTT assay. […] FC meter was used as microplate reader.
Adherent cell culture medium was discard and immediately replaced with fresh prepared medium which contains 10% CCK8 reagent (100 μL/well). For the suspension cells, CCK8 was directly added to 10% of the final concentration. The cells were continually incubated for 1˜4 h. When the color of control wells turned to dark yellow, the absorption value was measured at OD450 nm. The cell growth rate was calculated according to the following formula: cell growth rate (%)=100*(T−T0)/(C−T0), T=optical density of drug treatment cell well—optical density of blank control well; T0=optical density of cell well before drug treatment—optical density of blank control well; C=optical density of cell well of solvent control group—optical density of blank control well. […] The experiment was independently repeated 1˜3 times, and subject to biological statistical analysis.
Each compound started at 1000 nM as an initial concentration and was diluted by […] with serial dilution to 0.03 nM.

Row | SMILES | GI50 (SW48, read-out: GI50 SW48 (EGFR G719S)) [µM] | GI50 (SW48, Table 15, 1000 nM to 0.03 nM serial dilution, read-out: GI50 SW48 (EGFR G719S)) [µM]
1 | C=CC(=O)Nc1cc(Nc2nccc(-c3cn(C)c4ccccc34)n2)c(OC)cc1N(C)CCN(C)C [AZD9291, reference compound] | 0.156 | 
2 | C=CC(=O)Nc1cc(Nc2cc(Nc3cc(F)c(OC)c(Cl)c3)ncn2)c(OC)cc1N(C)CCN(C)C [Compound 236, N-(5-(6-(3-chloro-5-fluoro-4-methoxyphenylamino)-pyrimidin-4-yl-amino)-2-((2-dimethylamino-ethyl)-methyl-amino)-4-methoxyl-phenyl)-acrylamide] |  | 0.00423
